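Results reflect a 48-hour exposure of cells in 96-well plates to compound at five concentrations. Here, GI50 denotes the concentration required for 50% inhibition of growth.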 The source made the active and inactive calls. No stated cut-off is given here; in the data, active = GI50 up to about 1.1 µM and inactive = higher.
Assays:
Experiment in all cases: inhibition of tumour cell growth, NCI panel, 48 h
[1] = tested on: 786-0
[2] = tested on: A549
[3] = tested on: CCRF-CEM
[4] = tested on: COLO 205
[5] = tested on: DLD-1
[6] = tested on: DMS-114
[7] = tested on: DMS-273
[8] = tested on: EKVX
[9] = tested on: HCC 2998
[10] = tested on: HCT-116
[11] = tested on: HL-60
[12] = tested on: HOP-18
[13] = tested on: HOP-62
[14] = tested on: HT-29
[15] = tested on: IGROV-1
[16] = tested on: K562
[17] = tested on: KM-20L2
[18] = tested on: KM12
[19] = tested on: LOX IMVI
[20] = tested on: LXFL 529
[21] = tested on: M14
[22] = tested on: M19-MEL
[23] = tested on: MOLT-4
[24] = tested on: NCI-H226
[25] = tested on: NCI-H23
[26] = tested on: NCI-H460
[27] = tested on: NCI-H522
[28] = tested on: OVCAR-3
[29] = tested on: OVCAR-4
[30] = tested on: OVCAR-8
[31] = tested on: RPMI-8226
[32] = tested on: RXF 393
[33] = tested on: SF-268
[34] = tested on: SF-295
[35] = tested on: SF-539
[36] = tested on: SK-MEL-28
[37] = tested on: SK-MEL-5
[38] = tested on: SK-OV-3
[39] = tested on: SN12C
[40] = tested on: SNB-19
[41] = tested on: SNB-75
[42] = tested on: SNB-78
[43] = tested on: SW-620
[44] = tested on: TK-10
[45] = tested on: U-251
[46] = tested on: UACC-62
[47] = tested on: A498
[48] = tested on: CAKI-1
[49] = tested on: HCT-15
[50] = tested on: HOP-92
[51] = tested on: MCF7
[52] = tested on: Malme-3M
[53] = tested on: NCI/ADR-RES
[54] = tested on: OVCAR-5
[55] = tested on: SK-MEL-2
[56] = tested on: UACC-257
[57] = tested on: UO-31
[58] = tested on: XF498
[59] = tested on: SR

## COc1ccccc1NC(=O)CC(=O)NNCC(=O)Nc1nc(-c2ccccc2)cs1
[1]
  GI50: > 100 µM (inactive)
[2]
  GI50: > 100 µM (inactive)
[3]
  GI50: > 100 µM (inactive)
[4]
  GI50: > 100 µM (inactive)
[5]
  GI50: > 100 µM (inactive)
[6]
  GI50: > 100 µM (inactive)
[7]
  GI50: > 100 µM (inactive)
[8]
  GI50: > 100 µM (inactive)
[9]
  GI50: 4.1 µM (inactive)
[10]
  GI50: > 100 µM (inactive)
[11]
  GI50: > 100 µM (inactive)
[12]
  GI50: > 100 µM (inactive)
[13]
  GI50: > 100 µM (inactive)
[14]
  GI50: > 100 µM (inactive)
[15]
  GI50: > 100 µM (inactive)
[16]
  GI50: > 100 µM (inactive)
[17]
  GI50: > 100 µM (inactive)
[18]
  GI50: > 100 µM (inactive)
[19]
  GI50: > 100 µM (inactive)
[20]
  GI50: > 100 µM (inactive)
[21]
  GI50: > 100 µM (inactive)
[22]
  GI50: > 100 µM (inactive)
[23]
  GI50: > 100 µM (inactive)
[24]
  GI50: 40.6 µM (inactive)
[25]
  GI50: > 100 µM (inactive)
[26]
  GI50: > 100 µM (inactive)
[27]
  GI50: > 100 µM (inactive)
[28]
  GI50: > 100 µM (inactive)
[29]
  GI50: > 100 µM (inactive)
[30]
  GI50: > 100 µM (inactive)
[31]
  GI50: > 100 µM (inactive)
[32]
  GI50: > 100 µM (inactive)
[33]
  GI50: > 100 µM (inactive)
[34]
  GI50: > 100 µM (inactive)
[35]
  GI50: > 100 µM (inactive)
[36]
  GI50: > 100 µM (inactive)
[37]
  GI50: > 100 µM (inactive)
[38]
  GI50: > 100 µM (inactive)
[39]
  GI50: > 100 µM (inactive)
[40]
  GI50: > 100 µM (inactive)
[41]
  GI50: > 100 µM (inactive)
[42]
  GI50: > 100 µM (inactive)
[43]
  GI50: > 100 µM (inactive)
[44]
  GI50: > 100 µM (inactive)
[45]
  GI50: > 100 µM (inactive)
[46]
  GI50: > 100 µM (inactive)

## C[N+](C)(C)CCOC(=O)/C=C/c1c[nH]cn1
[47]
  GI50: > 500 µM (inactive)
[2]
  GI50: > 500 µM (inactive)
[48]
  GI50: > 500 µM (inactive)
[3]
  GI50: > 500 µM (inactive)
[4]
  GI50: > 500 µM (inactive)
[5]
  GI50: > 500 µM (inactive)
[6]
  GI50: > 500 µM (inactive)
[7]
  GI50: > 500 µM (inactive)
[8]
  GI50: > 500 µM (inactive)
[9]
  GI50: > 500 µM (inactive)
[10]
  GI50: > 500 µM (inactive)
[49]
  GI50: > 500 µM
[11]
  GI50: > 500 µM (inactive)
[12]
  GI50: > 500 µM (inactive)
[13]
  GI50: > 500 µM (inactive)
[50]
  GI50: 492 µM (inactive)
[14]
  GI50: > 500 µM (inactive)
[15]
  GI50: > 500 µM (inactive)
[16]
  GI50: > 500 µM (inactive)
[17]
  GI50: > 500 µM (inactive)
[18]
  GI50: > 500 µM (inactive)
[19]
  GI50: > 500 µM (inactive)
[22]
  GI50: > 500 µM (inactive)
[51]
  GI50: > 500 µM (inactive)
[23]
  GI50: > 316 µM (inactive)
[52]
  GI50: > 500 µM (inactive)
[24]
  GI50: > 500 µM (inactive)
[25]
  GI50: > 500 µM (inactive)
[26]
  GI50: > 500 µM (inactive)
[27]
  GI50: > 500 µM (inactive)
[53]
  GI50: > 500 µM (inactive)
[28]
  GI50: > 500 µM (inactive)
[29]
  GI50: > 500 µM (inactive)
[54]
  GI50: > 356 µM (inactive)
[30]
  GI50: > 500 µM (inactive)
[31]
  GI50: > 500 µM (inactive)
[32]
  GI50: > 500 µM (inactive)
[33]
  GI50: > 500 µM (inactive)
[34]
  GI50: > 500 µM (inactive)
[35]
  GI50: > 500 µM (inactive)
[36]
  GI50: > 500 µM (inactive)
[55]
  GI50: > 500 µM (inactive)
[37]
  GI50: > 500 µM (inactive)
[38]
  GI50: > 500 µM (inactive)
[39]
  GI50: > 500 µM (inactive)
[40]
  GI50: > 500 µM (inactive)
[41]
  GI50: > 500 µM (inactive)
[42]
  GI50: > 500 µM (inactive)
[43]
  GI50: > 500 µM (inactive)
[45]
  GI50: > 500 µM (inactive)
[56]
  GI50: > 500 µM (inactive)
[46]
  GI50: > 500 µM (inactive)
[57]
  GI50: > 500 µM (inactive)
[58]
  GI50: > 500 µM (inactive)

## CN(/C(=N\O)c1ccccc1)c1ccccc1
[1]
  GI50: 21.7 µM (inactive)
[2]
  GI50: 47 µM (inactive)
[48]
  GI50: 37.2 µM (inactive)
[4]
  GI50: 95.9 µM (inactive)
[5]
  GI50: 29.4 µM (inactive)
[6]
  GI50: 25.6 µM (inactive)
[7]
  GI50: 24.3 µM (inactive)
[8]
  GI50: 23.3 µM (inactive)
[9]
  GI50: 25.9 µM (inactive)
[10]
  GI50: 46.7 µM (inactive)
[11]
  GI50: 19.7 µM (inactive)
[12]
  GI50: < 0.01 µM (active)
[13]
  GI50: 22.9 µM (inactive)
[50]
  GI50: 5.12 µM (inactive)
[14]
  GI50: 30.5 µM (inactive)
[17]
  GI50: 17.3 µM (inactive)
[18]
  GI50: 36.3 µM (inactive)
[19]
  GI50: 22.6 µM (inactive)
[20]
  GI50: 34.8 µM (inactive)
[21]
  GI50: 21.6 µM (inactive)
[22]
  GI50: 78.2 µM (inactive)
[52]
  GI50: 39.1 µM (inactive)
[24]
  GI50: 21.3 µM (inactive)
[25]
  GI50: 24.4 µM (inactive)
[26]
  GI50: 32.5 µM (inactive)
[27]
  GI50: 18 µM (inactive)
[28]
  GI50: 21.7 µM (inactive)
[29]
  GI50: 33.7 µM (inactive)
[54]
  GI50: 88.9 µM (inactive)
[30]
  GI50: 24.8 µM (inactive)
[33]
  GI50: 28.1 µM (inactive)
[34]
  GI50: 21 µM (inactive)
[35]
  GI50: 22.6 µM (inactive)
[55]
  GI50: 27.8 µM (inactive)
[39]
  GI50: 32.1 µM (inactive)
[40]
  GI50: 27.9 µM (inactive)
[41]
  GI50: 13.5 µM (inactive)
[42]
  GI50: 28.4 µM (inactive)
[59]
  GI50: 25 µM (inactive)
[43]
  GI50: 32.2 µM (inactive)
[45]
  GI50: 17.2 µM (inactive)
[56]
  GI50: 38.6 µM (inactive)
[57]
  GI50: 25.5 µM (inactive)
